Data: patent US20240041982A1, “EXTENDED RELEASE HYDROGEL CONJUGATES OF C-NATRIURETIC PEPTIDES” (ProLynx LLC, priority 2020, published 2024)
Bridge positions count the residues as written; N and C are the ends. Ends that are not written are not given here.

Assays:
[1] = tested on: wild-type male mice (FVB/nJ); assay: Pharmacodynamics in juvenile mice: growth and bone length by X-ray; type: in vivo; conditions: QD 70 nmol/kg; after 5 weeks of treatment
Procedure: Three-week old wild-type male mice (FVB/nJ; Charles River Laboratory, Inc) were administered subcutaneous injections of the conjugates of Example 3 at either a weight-adjusted (nmol/kg) or constant (nmol/animal independent of the initial weight) dose over 35 days. For experiments using constant doses/animal, the conjugate of Example 3 wherein R^1=isopropylsulfonyl (conjugate 4A) was administered at either 20 or 50 nmol/mouse; the conjugate of Example 3 wherein R^1=(N,N-dimethylamino)sulfonyl (conjugate 4B) was administered at either 85 or 600 nmol/mouse. For experiments using weight-adjusted doses/animal, conjugate 4A was administered at either 1.5 or 2.2 umol/kg; conjugate 4B was administered at 6.1 umol/kg. Doses were calculated based on the body weight just prior to dosing and performed at approximately the same time of day. Comparator animals were dosed with either [Gln^6,14]CNP-38 or vosoritide at 70 nmol/kg formulated in 30 mM acetic acid pH 4.0 containing 10% (w/v) sucrose and 1% (v/v) benzyl alcohol (Wendt; Breinholt), and control animals were dosed with the formulation buffer (isotonic acetate (10 mM Na Acetate, 143 mM NaCl), pH 5.0, 0.05% Tween 20 buffer containing 1.2% sodium hyaluronate. Daily weight-adjusted doses were calculated based on the body weight just prior to dosing and performed at approximately the same time each day.
Blood collections were made via tail vein with the addition of protease inhibitors (Halt protease inhibitor cocktail, ThermoScientific) and processed with K2EDTA to provide ˜15-20 μL plasma, for analysis of free [Gln^6,14]CNP-38. For the mice treated with the conjugate 4A, blood collection occurred at 0, 24, 168, 192, 336, 360, 504, 528, 672 and 840 hr. For the mice treated with conjugate 4B, blood collection occurred at 0, 24, 168, 336, 504, 672 and 840 hr.
Body weight, tail length and naso-anal length were collected at study initiation and were measured weekly during the in-life treatment period. […] The naso-anal (distance from the tip of the nose to the anus) and the tail length (distance from the anus to the tip of the tail) were measured and recorded. The same ruler was used for all measurements, and all measurements were conducted and recorded in centimeters. Total length (TL) is derived from the addition of the measured tail length and naso-anal length.
On day 35, the mice were anesthetized and in addition to the nasal-anal and tail length measurements, bone length measurements were made by digital X-ray (spine, right femur, right tibia, humerus and ulna). Following deep anesthesia with isoflurane, the mice were placed in the prone position and the length of the spine (lateral view, distance from the most cranial end of the C1 vertebra to the most caudal end of the S4 vertebra and accounting for curvature manually), the right femur (distance from the most proximal femoral head ossification center to the most distal ossification center in dorso-ventral view), the right tibia (distance from the most proximal ossification center to the most distal ossification center in dorso-ventral view), the right humerus (distance from the most proximal ossification center to the most distal ossification center in dorso-ventral view), and the right ulna (distance from the most proximal ossification center to the most distal ossification center in dorso-ventral view) of each mouse were measured by x-ray using a Spectral Imaging Instruments AMI HTX and the associated Aura software.

[2] = in vivo; cited from earlier work
NPR-B = biological target: T1, NPR-B (Homo sapiens, UniProt P20594); conditions: physiological concentrations (picomolar); cited from earlier work
T1 sequence (P20594 23-1047): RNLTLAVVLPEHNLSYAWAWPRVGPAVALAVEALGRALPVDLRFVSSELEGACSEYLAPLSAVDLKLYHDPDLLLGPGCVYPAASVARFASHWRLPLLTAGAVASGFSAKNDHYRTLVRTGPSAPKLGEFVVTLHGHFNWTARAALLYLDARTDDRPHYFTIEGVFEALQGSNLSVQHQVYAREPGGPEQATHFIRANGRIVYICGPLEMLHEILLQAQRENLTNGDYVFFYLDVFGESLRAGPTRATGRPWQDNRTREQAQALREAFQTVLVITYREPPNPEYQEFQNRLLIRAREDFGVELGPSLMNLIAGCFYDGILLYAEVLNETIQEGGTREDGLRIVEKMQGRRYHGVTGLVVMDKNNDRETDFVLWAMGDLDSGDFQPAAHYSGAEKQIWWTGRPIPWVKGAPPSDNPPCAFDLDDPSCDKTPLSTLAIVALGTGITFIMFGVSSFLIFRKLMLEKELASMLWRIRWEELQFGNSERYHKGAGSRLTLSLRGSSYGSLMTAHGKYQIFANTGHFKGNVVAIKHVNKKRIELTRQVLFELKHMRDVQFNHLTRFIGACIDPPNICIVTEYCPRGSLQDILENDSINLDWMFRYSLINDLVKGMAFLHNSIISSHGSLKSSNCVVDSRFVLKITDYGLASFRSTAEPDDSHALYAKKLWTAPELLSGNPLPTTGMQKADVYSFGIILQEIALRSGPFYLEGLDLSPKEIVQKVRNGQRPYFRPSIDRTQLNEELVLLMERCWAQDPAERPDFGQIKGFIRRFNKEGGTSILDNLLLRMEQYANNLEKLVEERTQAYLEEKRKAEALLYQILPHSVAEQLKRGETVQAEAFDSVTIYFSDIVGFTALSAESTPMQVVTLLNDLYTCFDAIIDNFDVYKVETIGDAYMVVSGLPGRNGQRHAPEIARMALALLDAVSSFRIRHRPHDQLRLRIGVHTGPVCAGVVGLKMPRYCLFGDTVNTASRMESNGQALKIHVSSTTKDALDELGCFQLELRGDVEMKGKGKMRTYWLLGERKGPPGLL

[3] = in vivo; cited from earlier work; remark: listed apart in the source

Substance: (Gln^6,14)CNP38 (LQEHPQARKYKGAQKKGLSKGCFGLKLDRIGSMSGLGC; disulfide 22-38) [[Gln6, 14] CNP-38]
- Femur length % change from vehicle [1]: (13.6%)
- Humerus length % change from vehicle [1]: (0.8%)
- Spine length % change from vehicle [1]: (10.1%)
- Tibia length % change from vehicle [1]: (8.7%)
- Ulna length % change from vehicle [1]: (5.4%)

Substance: CNP22
- plasma half-life [2]: ~3 min
- affinity for NPR-B relative to ANP and BNP (NPR-B): 50-500 times

Substance: vosoritide (PGQEHPNARKYKGANKKGLSKGCFGLKLDRIGSMSGLGC; disulfide 23-39)
- known side-effects [3]: increased heart rate and a drop in arterial blood pressure
- half-life [2]: 20 min
